The target in the assay is T1, pancreatic cholesterol esterase (PCEH) (Homo sapiens, UniProt P19835).
T1 sequence (P19835 21-753): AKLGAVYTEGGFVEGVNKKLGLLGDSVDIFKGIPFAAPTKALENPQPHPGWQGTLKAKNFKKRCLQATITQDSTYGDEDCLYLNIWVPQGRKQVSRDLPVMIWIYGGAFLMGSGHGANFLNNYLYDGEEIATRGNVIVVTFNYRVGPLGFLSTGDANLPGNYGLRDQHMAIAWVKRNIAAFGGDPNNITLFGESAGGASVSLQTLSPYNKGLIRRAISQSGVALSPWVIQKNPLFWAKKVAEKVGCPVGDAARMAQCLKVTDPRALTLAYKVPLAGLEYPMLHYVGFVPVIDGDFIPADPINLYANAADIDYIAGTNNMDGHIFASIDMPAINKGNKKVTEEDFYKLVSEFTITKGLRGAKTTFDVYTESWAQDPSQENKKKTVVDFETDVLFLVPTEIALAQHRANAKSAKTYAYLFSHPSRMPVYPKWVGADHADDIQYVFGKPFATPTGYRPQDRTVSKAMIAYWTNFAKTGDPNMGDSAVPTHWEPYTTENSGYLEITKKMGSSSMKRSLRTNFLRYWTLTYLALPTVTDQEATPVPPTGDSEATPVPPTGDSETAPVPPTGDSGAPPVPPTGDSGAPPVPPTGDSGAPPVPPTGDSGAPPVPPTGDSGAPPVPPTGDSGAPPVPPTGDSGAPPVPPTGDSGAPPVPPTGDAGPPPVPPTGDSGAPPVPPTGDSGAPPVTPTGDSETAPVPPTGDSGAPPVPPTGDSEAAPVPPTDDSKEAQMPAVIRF
The assay can be described thus: KM estimation for PNPA substrate. The class given is biochemical. The note with it: nonlinear fit to the rate-progress curve. As to the method:
Purified pancreatic cholesterol esterase or ester hydrolase (PCH), shown by SDS-acrylamide and isoelectric focusing electrophoresis to be homogeneous,is used in a fresh solution of 90 mM (PNPA) in methanol.
First an initial screen is conducted as follows: to determine the effect of an inhibitor on the rate of enzyme catalyzed hydrolysis of PNPA, enzyme and inhibitor are first incubated at room temperature for ten minutes. Following incubation, enough PNPA substrate to give a final concentration of 0.225 mM is added. The rate of PNPA hydrolysis is monitored by observing an increase of absorption at 405 nm over the course of ten minutes. On average, the concentration of inhibitor is 1300-fold greater than that of the enzyme inhibitor concentrate. The maximum solubility of PNPA of approximately twice the value of Km, limited the accuracy the KM determination for the PNPA substrate. The estimated KM based on a nonlinear fit to the rate-progress curve is KM ~1 mM. With this estimate the substrate concentration used in the screen was approximately 0.25 KM.

`CC(=O)Oc1ccc([N+](=O)[O-])cc1` [PNPA, p-nitrophenyl acetate]: the “estimated KM” value is given as ~ 1 mM.

These data come from patent US5474993A, “Lactam inhibitors of cholesterol esterase” (Sterling Winthrop, Inc., priority 1994, dated 1995).
